Reference: article PMC9663686, “Proline, hydroxyproline, and pyrrolidone carboxylic acid derivatives as highly efficient but reversible transdermal permeation enhancers” (Scientific Reports, 2022)
In brackets after ≈: the same amount, converted by molar mass. Marks after values point to notes of the source that are not given here.

How the values were obtained:
[1] = test system: human skin; assay: Transepidermal water loss (TEWL) of human skin in vitro, reversibility; conditions: for TEWL 1 h after the sample had been removed / TEWL 4 h after the sample had been removed / TEWL 8 h after the sample had been removed / TEWL 12 h after the sample had been removed / TEWL 24 h after the sample had been removed: 24-h application of 1% enhancer (1% Azone, 5% SDS) in 60% PG; for TEWL 1 h after the sample had been removed / TEWL 4 h after the sample had been removed / TEWL 8 h after the sample had been removed / TEWL 12 h after the sample had been removed / TEWL 24 h after the sample had been removed / TEWL before sample application (baseline): mean ± SEM; for reversibility of TEWL increase: after 24-h application, followed 24 h after removal
Text: (§1) We further investigated the direct effects of the selected enhancers on the skin barrier assessed by TEWL and the electrical impedance of human skin in vitro. TEWL is a method commonly used in dermatology[38] to study, for example, the irritant potential of chemicals, skin barrier recovery, or effect of topical formulations, and permeation enhancers[17],[21],[41]–[44]. Electrical impedance measures the opposition of the skin to alternating electrical current and is inversely proportional to the flux of ions. Thus, increased TEWL or decreased impedance indicates a barrier impairment[45],[46]. Electrical impedance or conductance measurements have been used to screen new enhancers or assess the irritation potential of compounds[13],[15],[17],[21],[32],[44],[47]–[50]. Both TEWL and impedance can distinguish between reversible and irreversible effects of enhancers on skin permeability[17],[21],[40],[44],[51].
(§2) Human skin was mounted in Franz diffusion cells in the same way as for the permeation studies. After 1-h equilibration, basal TEWL and impedance values were recorded. Then, 1% enhancer in 60% PG, 60% PG as a negative control, 1% Azone in 60% PG, or 5% SDS in 60% PG as positive (irreversible) controls was applied on the skin (100 µl/cm^2) for 24 h. The residual sample was washed with PBS and gently blotted dry. At 1, 4, 8, 12, and 24 h after sample removal, TEWL, and impedance values were recorded. TEWL was measured using AquaFlux AF 200 (Biox Systems Ltd, London, UK), employing the condenser-chamber measurement method at 26 ± 1.0 °C and 43 ± 3% relative air humidity. Electrical impedance was measured by LCR meter 4080 (Conrad electronic, Hirschau, Germany, measuring range 20 Ω–10 MΩ, error at kΩ values < 0.5%) operated in parallel mode with an alternating frequency of 120 Hz, which was also used in our previous work[21],[44].
(§3) Samples were removed from the skin after 24 h, and TEWL and impedance values were recorded in predetermined time intervals (1, 4, 8, 12, and 24 h after sample removal). Data are presented as the means ± SEM; n ≥ 3. * statistically significant difference compared to the baseline value before the sample application at p < 0.05. ^+ statistically significant compared to the value 1 h after the sample removal at p < 0.05.^ ≠ statistically significant compared to the control (60% PG without enhancer) at the same time point, at p < 0.05.

[2] = test system: human skin; assay: Electrical impedance of human skin in vitro, reversibility; conditions: for impedance 1 h after the sample had been removed / impedance 4 h after the sample had been removed / impedance 8 h after the sample had been removed / impedance 12 h after the sample had been removed / impedance 24 h after the sample had been removed: 24-h application of 1% enhancer (1% Azone, 5% SDS) in 60% PG; for impedance 1 h after the sample had been removed / impedance 4 h after the sample had been removed / impedance 8 h after the sample had been removed / impedance 12 h after the sample had been removed / impedance 24 h after the sample had been removed / impedance before sample application (baseline): mean ± SEM; for recovery of skin impedance after sample removal: after 24-h application, followed 24 h after removal
Text: as §1, §2, §3

[3] = Diclofenac permeation through human skin in Franz diffusion cells with co-applied enhancer; type: in vitro ADME; conditions: pH 7.4; 3% DC in 60% PG, no enhancer; human skin in vitro; read-out: permeability coefficient of DC (converted)
Experimental: (§4) Donor samples for reversibility and infrared studies contained 1% enhancer in 60% PG. All samples were thoroughly mixed, incubated at 32 °C for 24 h, and, if needed, carefully resuspended before applying on the skin. The effects of the studied enhancers on the solubility of model drugs were assessed as described previously.
(§5) The permeation-enhancing potencies of the prepared compounds were evaluated on human skin in Franz diffusion cells. Human skin was slowly thawed, cut into 2 × 2 cm pieces, fixed in Teflon holders with 1-cm^2 circular permeation areas, and mounted into Franz cells epidermal side up. The acceptor compartment (15.9 ± 0.1 ml) was filled with phosphate-buffered saline at pH 7.4 with 0.005% gentamicin (PBS) and stirred at 32 °C throughout the experiment. The skin integrity was checked by electrical impedance (any skin sample with the impedance < 10 kΩ was excluded). Then, 100 µl of a donor sample (infinite dose) was applied to the skin and covered with a glass slide. Acceptor phase samples (300 µl) were collected at predetermined time intervals for 48 h, to reach steady-state and were replaced by the same volume of fresh PBS. […] The drug concentrations were measured by HPLC (see supplementary data).
(§6) The flux of the model drug through the skin Jss (µg/cm^2/h) was calculated from the linear region of this plot. The enhancement ratio (ER) was calculated as the ratio of flux with and without an enhancer.
(§7) After the permeation experiment, the cells were dismounted, the skin was carefully washed with PBS, and the permeation area of the skin (1 cm^2) was punched off. After heating the skin fragments to 80 °C for 1 min, the epidermis (E) was peeled off the dermis (D), individually weighed and extracted by 1 and 2 ml, respectively, of an extraction solvent (identical to the mobile phase for the drug HPLC analysis, see supplementary data) for 24 h. The drug concentration was measured by HPLC (see supplementary data).

[4] = Solubility of model drugs (donor sample, PBS); conditions: for solubility: pH 7.4
Experimental: as §4, §5

[5] = test system: human skin; conditions: 5% DC in PBS/isopropyl alcohol 9:1 on human skin; cited from earlier work
[6] = test system: rat skin; conditions: […] DC in ethanol/glycerol/water 6:1:3 on rat skin; cited from earlier work
[7] = test system: human skin; assay: Theophylline permeation through human skin in Franz diffusion cells with co-applied enhancer; type: in vitro ADME; conditions: for CDERMIS, theophylline concentration in dermis / CEPIDERMIS, theophylline concentration in epidermis / ER, enhancement ratio of theophylline flux (fold increase in flux over control): 1% enhancer co-applied with 5% TH in 60% PG; for CDERMIS, theophylline concentration in dermis / CEPIDERMIS, theophylline concentration in epidermis: after 48 h permeation, mean ± SEM; for ER, enhancement ratio of theophylline flux (fold increase in flux over control): human skin in vitro
Experimental: The prepared enhancers were applied at 1% in 60% aqueous propylene glycol (PG) to human skin in vitro; 60% PG was used as a negative control. PG was selected for its synergy with amphiphilic enhancers. Each model drug was co-applied with the enhancer at infinite dose.
as §4, §5, §6, §7

[8] = test system: human skin; assay: Diclofenac permeation through human skin in Franz diffusion cells with co-applied enhancer; type: in vitro ADME; conditions: 1% enhancer co-applied with 3% DC in 60% PG; for CDERMIS, diclofenac concentration in dermis / CEPIDERMIS, diclofenac concentration in epidermis: after 48 h permeation, mean ± SEM; for ER, enhancement ratio of diclofenac flux: human skin in vitro
Experimental: as §4, §5, §6, §7

[9] = DC: free acid form; quoted without reference; cited from earlier work

SMILES	CDERMIS, theophylline concentration in dermis [7] [µg/mg]	CEPIDERMIS, theophylline concentration in epidermis [7] [µg/mg]	ER, enhancement ratio of theophylline flux (fold increase in flux over control) [7]	CDERMIS, diclofenac concentration in dermis [8] [µg/mg]	CEPIDERMIS, diclofenac concentration in epidermis [8] [µg/mg]	ER, enhancement ratio of diclofenac flux [8]	further results
CCCCCCCCCCCCN1CCCCCC1=O [Azone, N-dodecylazepan-2-one, reference compound]	–	–	–	–	–	–	TEWL 1 h after the sample had been removed [1]: 67.7 ± 1.3*^≠ g/m^2/h; TEWL 4 h after the sample had been removed [1]: 60.7 ± 1.7*^≠ g/m^2/h; TEWL 8 h after the sample had been removed [1]: 51.9 ± 1.6*^≠+ g/m^2/h; TEWL 12 h after the sample had been removed [1]: 48.8 ± 2.3*^≠+ g/m^2/h; TEWL 24 h after the sample had been removed [1]: 48.3 ± 1.4*^≠+ g/m^2/h; reversibility of TEWL increase [1]: lack of TEWL and impedance reversibility; TEWL before sample application (baseline) [1]: 28.2 ± 3.6 g/m^2/h; impedance 1 h after the sample had been removed [2]: 2.6 ± 0.4* kΩ×cm^2; impedance 4 h after the sample had been removed [2]: 7.8 ± 0.4*^≠ kΩ×cm^2; impedance 8 h after the sample had been removed [2]: 11.2 ± 0.2*^≠+ kΩ×cm^2; impedance 12 h after the sample had been removed [2]: 12.2 ± 0.4*^≠+ kΩ×cm^2; impedance 24 h after the sample had been removed [2]: 12.4 ± 0.8*^≠+ kΩ×cm^2; recovery of skin impedance after sample removal [2]: lack of TEWL and impedance reversibility; impedance before sample application (baseline) [2]: 25.1 ± 2.0 kΩ×cm^2
O=C(O)Cc1ccccc1Nc1c(Cl)cccc1Cl [DC, diclofenac]	–	–	–	–	–	–	Papp at 48 h, 3 % [3]: 0.0144 ×10⁻⁶ cm/s; solubility ([4]; phosphate-buffered saline): 9450 ± 150 µg/mL (≈ 31.9 mM); permeability coefficient of DC [5]: 2.2 × 10^–5 cm/h; permeability coefficient of DC [6]: 11.0 × 10^–5 cm/h
CCCCCCCCCCCCOC(=O)C1CC(O)CN1C(C)=O (stereo not drawn) [Hyp2]	0.20 ± 0.03	2.87 ± 0.45	10	0.90 ± 0.08	9.22 ± 0.32	3	–
CCCCCCCCCCCCOC(=O)C1CC(O)CN1C(=O)CC (stereo not drawn) [Hyp3]	0.25 ± 0.07	3.64 ± 0.85	–	0.97 ± 0.07	9.18 ± 0.62	4	ER of epidermal TH concentration ([7]; 1% enhancer with 5% TH in 60% PG, over control): 1.9
CCCCCCCCCCCCOC(=O)C1CC(O)CN1C(=O)CCC (stereo not drawn) [Hyp4]	0.39 ± 0.07	1.96 ± 0.56	16	1.01 ± 0.05	8.99 ± 1.23	4	–
CCCCCCCCCCCCOC(=O)C1CC(O)CN1C(=O)CCCC (stereo not drawn) [Hyp5]	0.23 ± 0.03	1.45 ± 0.41	~19	1.02 ± 0.11	9.84 ± 1.22	5	–
CCCCCCCCCCCCOC(=O)C1CCC(=O)N1C(C)=O (stereo not drawn) [PCA2]	0.22 ± 0.03	2.33 ± 0.26	12	–	–	–	–
CCCCCCCCCCCCOC(=O)C1CCC(=O)N1C(=O)CC (stereo not drawn) [PCA3]	0.28 ± 0.04	2.99 ± 0.37	9	–	–	–	–
CCCCCCCCCCCCOC(=O)C1CCC(=O)N1C(=O)CCC (stereo not drawn) [PCA4]	0.30 ± 0.14	2.53 ± 0.23	5	–	–	–	–
CCCCCCCCCCCCOC(=O)C1CCC(=O)N1C(=O)CCCC (stereo not drawn) [PCA5]	0.23 ± 0.07	2.14 ± 0.44	5	–	–	–	–
CCCCCCCCCCCCOC(=O)C1CCCN1C(=O)CCCC (stereo not drawn) [Pro5]	0.26 ± 0.02	0.83 ± 0.12	24	1.30 ± 0.25	8.51 ± 1.39	–	–
CCCCCCCCCCCCOC(=O)C1CCCN1C(=O)CCCCC (stereo not drawn) [Pro6]	0.22 ± 0.03	1.14 ± 0.19	16	1.44 ± 0.31	10.26 ± 0.38	–	–
CCCCCCCCCCCCOC(=O)C1CCCN1C(=O)CCCCCC (stereo not drawn) [Pro7]	0.26 ± 0.04	0.95 ± 0.09	15	1.30 ± 0.75	8.63 ± 3.11	5	–
CCCCCCCCCCCCOC(=O)C1CCCN1C(=O)CCCCCCC (stereo not drawn) [Pro8]	0.19 ± 0.02	0.89 ± 0.25	9	1.08 ± 0.28	10.20 ± 0.96	3	–
CCCCCCCCCCCCOS(=O)(=O)[O-].[Na+] [SDS, sodium dodecyl sulfate, reference compound]	–	–	–	–	–	–	TEWL 1 h after the sample had been removed [1]: 47.3 ± 2.2*^≠ g/m^2/h; TEWL 4 h after the sample had been removed [1]: 45.8 ± 4.4* g/m^2/h; TEWL 8 h after the sample had been removed [1]: 38.7 ± 3.1* g/m^2/h; TEWL 12 h after the sample had been removed [1]: 38.2 ± 2.6* g/m^2/h; TEWL 24 h after the sample had been removed [1]: 38.0 ± 2.3* g/m^2/h; reversibility of TEWL increase [1]: lack of TEWL and impedance reversibility; TEWL before sample application (baseline) [1]: 26.1 ± 2.9 g/m^2/h; impedance 1 h after the sample had been removed [2]: 1.9 ± 0.2* kΩ×cm^2; impedance 4 h after the sample had been removed [2]: 3.8 ± 0.2*^≠ kΩ×cm^2; impedance 8 h after the sample had been removed [2]: 5.0 ± 0.3*^≠ kΩ×cm^2; impedance 12 h after the sample had been removed [2]: 5.6 ± 0.3*^≠ kΩ×cm^2; impedance 24 h after the sample had been removed [2]: 6.4 ± 0.3*^≠ kΩ×cm^2; recovery of skin impedance after sample removal [2]: lack of TEWL and impedance reversibility; impedance before sample application (baseline) [2]: 26.7 ± 0.7 kΩ×cm^2
Cn1c(=O)c2[nH]cnc2n(C)c1=O [TH, theophylline]	–	–	–	–	–	–	solubility at 24 h [4]: ~25000 µg/mL (≈ 139 mM); solubility [4]: 7650 ± 20 µg/mL (≈ 42.5 mM); logP [9]: ~ 0
